Assays:
human NK3 receptor = molecular target: T1, human NK3 receptor (Homo sapiens, UniProt P29371); experiment: NK3 receptor binding assay; conditions: filter-based competition binding vs ~0.05 nM 3H-AE93103, membranes of BHK cells expressing human NK3; Ki by Cheng Prusoff; read-out: Affinity (Ki/nM)
T1 construct: expressed in transfected cells; membranes prepared
T1 sequence (P29371 1-465): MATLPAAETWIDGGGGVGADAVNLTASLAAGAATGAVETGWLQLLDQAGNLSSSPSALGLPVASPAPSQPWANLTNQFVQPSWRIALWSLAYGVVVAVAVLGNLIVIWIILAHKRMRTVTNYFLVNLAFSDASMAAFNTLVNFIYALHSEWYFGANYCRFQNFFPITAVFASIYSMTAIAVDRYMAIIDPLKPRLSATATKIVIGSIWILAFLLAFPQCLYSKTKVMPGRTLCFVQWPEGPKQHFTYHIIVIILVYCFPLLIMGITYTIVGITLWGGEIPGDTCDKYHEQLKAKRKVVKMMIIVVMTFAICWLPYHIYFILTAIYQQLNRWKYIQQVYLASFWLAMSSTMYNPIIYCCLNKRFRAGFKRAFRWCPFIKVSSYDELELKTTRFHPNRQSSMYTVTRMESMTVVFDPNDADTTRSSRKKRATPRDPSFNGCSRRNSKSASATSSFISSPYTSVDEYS
Description: Membranepreparation: BHK cells stably expressing the human NK3 receptor were seeded in harvesting plates in Dulbeccos MEM containing GlutaMax (862 mg/l), 1 mM sodium pyruvate, 10% fetal calf serum, 1% Pen/Strep, 1 mg/ml G418 and were grown at 34° C. in a humidified atmosphere containing 10% CO2. To increase receptor expression, 10 μM trichotatin A was added to the media 24 hours before harvest of the cells at a confluency of app 90%. Prior to the harvesting, the cells were washed twice with PBS without Mg^2+ and Ca^2+ and subsequently scrapped of in 10 ml PBS pr harvesting plate. The cells suspension were centrifuged at 1500×G in three minutes before resuspension in 15 mM Tris-HCl pH 7,5 buffer containing 2 mM MgCl2; 0,3 mM EDTA and 1 mM EGTA (buffer A). The cell suspention was homogenised and subsequently centrifuged at 40000×G in 30 minutes. The membrane-pellet was resuspended in buffer A containing 250 mM sucrose, alliquoted and stored at −80° C.
Affinity assay description: The assay is performed as a filter-based competition-binding in a 50 mM Tris pH 7.4 assay buffer containing 120 mM NaCl and 3 mM MnCl2. App 0.05 nM ^3H-AE93103 was mixed with test compounds before addition of 0.15 μg of a homogenised NK3 membrane preparation in a total volume of 300 μl. The assay plate is incubated for 90 min at RT before content of the wells is transferred using a cell-harvester to GF/C filter plates, which has been pretreated with 0.1% PEI. The filter is washed 3 times with 1 ml an ice-cold 50 mM Tris buffer, pH 7,4. The filter is dried and added scintillation liquid before the plate is counted in a topcounter 5 minutes pr well.
The total binding, which comprised less than 10% of added radioligand, was defined using assay buffer whereas the non-specific binding was defined in the presence of 1 μM SR142801. The non-specific binding constituted ˜10% of the total binding. Data points are expressed in percent of the specific binding of ^3H-AE93103 and the […] (concentration causing 50% inhibition of ^3H-AE93103 specific binding) are determined by non-linear regression analysis using a sigmoidal variable slope curve fitting.

[1] = in vivo; cited from earlier work
[2] = cited from earlier work
[3] = cited from earlier work; remark: listed apart in the source

With `CCNn1c(C)c(C(=O)N[C@H](c2cccc(F)c2)C2CCC2)c2cnccc2c1=O` [Example 1a, 2-Ethylamino-3-methyl-1-oxo-1,2-dihydro-[2,6]naphthyridine-4-carboxylic acid [(S)-cyclobutyl-(3-fluoro-phenyl)-methyl]-amide] the Ki (human NK3 receptor) was 58 nM.

Work on `CCCNn1c(C)c(C(=O)N[C@H](c2ccc(F)cc2)C2CC2)c2cnccc2c1=O` [Example 1b, 3-Methyl-1-oxo-2-propylamino-1,2-dihydro-[2,6]naphthyridine-4-carboxylic acid [(S)-cyclopropyl-(4-fluoro-phenyl)-methyl]-amide] yielded a Ki (human NK3 receptor) of 720 nM.

For `CCCNn1c(C)c(C(=O)N[C@H](c2cccc(Cl)c2)C2CC2)c2cnccc2c1=O` [Example 1c, 3-Methyl-1-oxo-2-propylamino-1,2-dihydro-[2,6]naphthyridine-4-carboxylic acid [(S)-(3-chloro-phenyl)-cyclopropyl-methyl]-amide], the Ki (human NK3 receptor) was 540 nM.

With `CCCNn1c(C)c(C(=O)NC(c2ccccc2F)C2CCC2)c2cnccc2c1=O` (stereo not drawn) [Example 1d, 3-Methyl-1-oxo-2-propylamino-1,2-dihydro-[2,6]naphthyridine-4-carboxylic acid [cyclobutyl-(2-fluoro-phenyl)-methyl]-amide] the Ki (human NK3 receptor) was 160 nM.

In the case of `CCCNn1c(C)c(C(=O)N[C@H](c2cccc(F)c2)C2CCC2)c2cnccc2c1=O` [Example 1e, 3-Methyl-1-oxo-2-propylamino-1,2-dihydro-[2,6]naphthyridine-4-carboxylic acid [(S)-cyclobutyl-(3-fluoro-phenyl)-methyl]-amide], the Ki (human NK3 receptor) is reported as 33 nM.

In the case of `CCCNn1c(C)c(C(=O)N[C@@H](CC)c2ccccc2)c2cnccc2c1=O` [Example 1g, 3-Methyl-1-oxo-2-propylamino-1,2-dihydro-[2,6]naphthyridine-4-carboxylic acid ((S)-1-phenyl-propyl)-amide], the Ki (human NK3 receptor) is reported as 430 nM.

`CCNn1c(C)c(C(=O)N[C@H](c2cccc(F)c2)C2CCC2)c2ncccc2c1=O` [Example 2a, 6-Ethylamino-7-methyl-5-oxo-5,6-dihydro-[1,6]naphthyridine-8-carboxylic acid [(S)-cyclobutyl-(3-fluoro-phenyl)-methyl]-amide] gave a Ki (human NK3 receptor) of 91 nM.

Work on `CCNn1c(C)c(C(=O)N[C@H](c2cccc(F)c2)C2CCC2)c2ccncc2c1=O` [Example 3a, 2-Ethylamino-3-methyl-1-oxo-1,2-dihydro-2,7-naphthyridine-4-carboxylic acid [(S)-cyclobutyl-(3-fluoro-phenyl)-methyl]-amide] yielded a Ki (human NK3 receptor) of 110 nM.

In the case of `CC(=O)N(C)C1(c2ccccc2)CCN(CCC[C@]2(c3ccc(Cl)c(Cl)c3)CCCN(C(=O)c3ccccc3)C2)CC1` [Osanetant], the bioavailability [1] is listed as “poor”, the blood-brain barrier penetration [1] is listed as “poor” and the clearance [1] is listed as “relatively high”. For the same molecule, the solubility [2] was “poor” and the “Effect in clinical trials, in particular on positive symptoms of psychosis” value ([3]; delusions, hallucinations and paranoia) was “superior to placebo”.

For `CC[C@H](NC(=O)c1c(O)c(-c2ccccc2)nc2ccccc12)c1ccccc1` [talnetant], the bioavailability [1] is given as “poor”, the blood-brain barrier penetration [1] is given as “poor” and the clearance [1] is given as “relatively high”. For the same molecule, the solubility [2] was “poor” and the “Effect on cognitive behaviour of schizophrenics in clinical trials” value ([3]; schizophrenics) was “ameliorate the cognitive behaviour”.

— US20110224247A1, “AZAISOQUINOLINONE DERIVATIVES AS NK3 ANTAGONISTS” (H. LUNDBECK A/S, priority 2010, published 2011)
